Measured values as given in BigSolDB 2.1.

Cc1c([N+](=O)[O-])c(C)c([N+](=O)[O-])c(C(C)(C)C)c1[N+](=O)[O-]
solubility (mole fraction)
Conditions | in DMAc | in THF | in cyclohexane | in ethanol | in ethyl acetate | in isopropanol | in methanol | in n-butanol | in n-heptane | in n-hexane
278.15 K | 0.0918 | 0.0786 | 0.00467 | 0.00168 | 0.0953 | 0.00128 | 0.00185 | 0.00245 | 0.00262 | 0.00225
283.15 K | 0.112 | 0.0889 | 0.00588 | 0.00207 | 0.115 | 0.00165 | 0.00234 | 0.00308 | 0.00321 | 0.00284
288.15 K | 0.134 | 0.1 | 0.00739 | 0.00254 | 0.136 | 0.00211 | 0.00295 | 0.00374 | 0.00402 | 0.00359
293.15 K | 0.156 | 0.112 | 0.00925 | 0.00311 | 0.158 | 0.00269 | 0.00369 | 0.0045 | 0.00496 | 0.00437
298.15 K | 0.179 | 0.126 | 0.0116 | 0.00378 | 0.182 | 0.00343 | 0.00459 | 0.00553 | 0.00609 | 0.00557
303.15 K | 0.205 | 0.139 | 0.0145 | 0.00458 | 0.207 | 0.00437 | 0.00569 | 0.00666 | 0.00752 | 0.00685
308.15 K | 0.232 | 0.156 | 0.0182 | 0.00552 | 0.233 | 0.00557 | 0.00704 | 0.00806 | 0.00931 | 0.00842
313.15 K | 0.263 | 0.173 | 0.0229 | 0.00663 | 0.262 | 0.00713 | 0.00868 | 0.00974 | 0.0114 | 0.0104
